From ChEMBL document CHEMBL1153727, “Crotonkinensins A and B, diterpenoids from the Vietnamese medicinal plant Croton tonkinensis” (J Nat Prod, 2009)
pIC50: −log10 of the molar value. Activity calls are given as the source filed them. The rule behind the calls is not given here.

Experiments:
RAW264.7 [1] = test: Antiinflammatory activity in LPS-stimulated mouse RAW264.7 cells assessed as inhibition of beta-gal-tagged COX2 promoter activity pretreated 30 mins before LPS administration measured after 24 hrs by luciferase reporter gene assay relative to control; type: functional, cell-based
RAW264.7 [2] = test: Antiinflammatory activity in LPS-stimulated mouse RAW264.7 cells assessed as inhibition of COX2 protein expression at 10 to 100 uM pretreated 30 mins before LPS administration measured after 24 hrs by Western blot analysis; type: functional, cell-based

Row | pIC50 (RAW264.7 [1]) | Structure (SMILES) | inhibition (RAW264.7 [1]) | inhibition (RAW264.7 [2])
1 | 5.15 | C=C1C(=O)[C@@]23[C@@H]4CC5=C(C(=O)CC5(C)C)[C@@](C)(O4)[C@@H]2CC[C@@H]1[C@H]3O [CROTONKINENSIN A] | Dose-dependent effect | Active
2 | 5.26 | C=C1C(=O)[C@@]23[C@@H]4C[C@H]5C(=CCC5(C)C)[C@@](C)(O4)[C@@H]2CC[C@@H]1[C@H]3O [CROTONKINENSIN B] | Dose-dependent effect | Active
